Data on 2 compounds can be found in patent US12054495B2, “Substituted macrocyclic compounds and related methods of treatment” (Alkermes, Inc., priority 2019, dated 2024).

Like-named read-outs stand apart in the source and are kept apart here.

Data set [1] addresses T1, human orexin-2 receptor (OX2R) (Homo sapiens, UniProt O43614).
T1 construct: expressed in transfected cells
T1 sequence (O43614 1-444): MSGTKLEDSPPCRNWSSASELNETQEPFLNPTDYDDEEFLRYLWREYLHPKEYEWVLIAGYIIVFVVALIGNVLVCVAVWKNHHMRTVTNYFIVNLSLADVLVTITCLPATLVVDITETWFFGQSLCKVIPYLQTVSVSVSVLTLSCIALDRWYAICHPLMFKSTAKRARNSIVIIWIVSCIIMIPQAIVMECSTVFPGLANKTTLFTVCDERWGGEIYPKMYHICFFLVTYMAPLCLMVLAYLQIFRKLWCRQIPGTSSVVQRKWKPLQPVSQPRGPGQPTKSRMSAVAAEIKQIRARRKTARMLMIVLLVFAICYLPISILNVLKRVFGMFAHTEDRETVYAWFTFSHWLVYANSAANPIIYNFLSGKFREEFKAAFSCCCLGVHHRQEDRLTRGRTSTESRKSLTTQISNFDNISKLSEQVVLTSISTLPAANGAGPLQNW
Briefly: Human OX2R IP1 assay. It is filed as cell-based. To be noted: T-Rex CHO cells stably overexpressing human OX2R, IP1 accumulation, 1 hr at 37 degrees C; mean EC50; ∧ = racemic mixture. The procedure, abridged:
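Doxycycline-induced T-Rex CHO cells stably expressing human OX2R treated with compound 1 hr at 37 °C in LiCl-containing buffer, pH 7.4. IP1 accumulation quantified by HTRF competitive immunoassay; EC50 reported as mean ± S.E.M.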

A short description of data set [2]: Hepatocytes stability assay (human hepatocytes). It is filed as in vitro ADME. The conditions noted are these: both sexes, cryopreserved hepatocytes, 1 μM test compound, 1×10^6 cell/mL, 37 degrees C, read-out: CLint (μL/min/million cells). The procedure, abridged: (§1)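 Cryopreserved pooled (50 donors, mixed gender) human hepatocytes at 1×10^6 cells/mL in Krebs-Henseleit buffer with 1 μM compound (0.1% DMSO), 37 degrees C, sampled 0–240 min. Parent depletion by LC-MS/MS; first-order fit gave T1/2 and CLint, scaled to hepatic clearance via well-stirred model (fu assumed 1); extraction ratio = CL,hep/liver blood flow.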

A further data set relates to human hepatocytes. Put plainly: Hepatocytes stability assay (human hepatocytes). In kind it is in vitro ADME. To be noted: scaled hepatic clearance divided by liver blood flow, fu assumed unity. Summed up: as §1
Another data set has as its system Sprague-Dawley rats. Put plainly: Assessment of wake promotion in Sprague-Dawley rats (EEG/EMG). To be noted: Rattus norvegicus, 3 mpk, male Sprague-Dawley rats, dosed at ZT5, 6-hour post-dose period, read-out: Mean cortical activation time (% vehicle treatment). In kind it is in vivo. As for the experimental part:
Wake promotion was assessed using electroencephalography (EEG) and electromyography (EMG) in adult male Sprague-Dawley rats (350-600 g). All rats (Charles River Laboratories, Raleigh, NC, USA) were intraperitoneally implanted with telemetry devices (F50-EEE, Data Sciences International Inc., M/N, USA) under isoflurane anesthesia. For EEG, stainless steel screws were implanted over frontal cortex and parietal cortex, and reference screws were placed over cerebellum. Additionally, an electrode was placed in neck muscle for EMG. Rats were given carprofen post-surgery and underwent a 7 to 10-day recovery period. Rats habituated to the experimental room for 7 days and were maintained on a 12-hour light-dark cycle.
EEG and EMG data were recorded using the DSI telemetry system and Ponemah software (Data Sciences International Inc., MN, USA). Sleep-wake stages were scored both manually and with Somnivore, a supervised machine learning software platform, in 10 second epocs. Records were visually inspected as needed post-processing.
All test compounds were dissolved in 5% DMSO and suspended in 95% saline with 0.5% methylcellulose and 0.5% tween. […] Unless otherwise indicated, all compounds were dosed orally. Recordings for each rat were initiated immediately after dosing and lasted for 6 hours post-dose.
Two key endpoints include wakefulness time and cortical activation time. Wakefulness time is derived from the sleep-wake stage analysis. Cortical activation time is based on the duration in which frontal gamma oscillatory activity (30-100 Hz), a key feature of wakefulness, was elevated relative to a pre-treatment baseline. Mean cortical activation time was computed relative to vehicle treatment for the 6-hour post-dose period.

Broadly, the EC50 is the midpoint of the concentration-response curve. With `CS(=O)(=O)N[C@@H]1CCCN2C(=O)COc3cccc(F)c3[C@H]3CC[C@H](CC3)OC[C@H]12` (racemic) [Compound 49], the EC50 in data set [1] was below 100 nM. Besides, the hepatocyte CLint at 1 μM in data set [2] is 12 µL/min/1e6 cells. Also, the “Extraction Ratio (ER)” value in the data set on human hepatocytes stood at 0.64. In the data set with Sprague-Dawley rats (PO), the response vs control in vivo at 3 mg/kg came out at 340%.

For `COC(=O)N1CCC[C@H](NS(C)(=O)=O)[C@@H]1CO[C@H]1CC[C@@H](c2ccccc2)CC1` [methyl (2R,3S)-3-((methylsulfonyl)amino)-2-(((cis-4-phenylcyclohexyl)oxy)methyl)-piperidine-1-carboxylate, reference compound], the half-maximal effective concentration (EC50) in data set [1] was below 100 nM. For the same compound, in data set [2], the hepatocyte CLint at 1 μM was found to be 51 µL/min/1e6 cells. Besides, the “Extraction Ratio (ER)” value in the data set on human hepatocytes was found to be 0.88. Moreover, in the data set on Sprague-Dawley rats (SC), the response vs control in vivo at 3 mg/kg stood at 119%.
